The values that follow come from patent US20160272617A1, “SUBSTITUTED PHENYLALANINE DERIVATIVES” (BAYER PHARMA AKTIENGESELLSCHAFT, priority 2013, published 2016).

What is called IC50 is the concentration needed to halve the response being measured.

Counter-ions that a name gives are not always drawn.

Test [1] has as its target T1, human factor XIa (Homo sapiens, UniProt P03951).
T1 construct: purchased Kordia
The experiment in a line: Measurement of FXIa inhibition (fluorogenic peptide substrate Boc-Glu(OBzl)-Ala-Arg-AMC). The class given is biochemical. Particulars: factor XIa from Kordia, 15 min preincubation, 30 min at 22° C., fluorescence. The method, boiled down:
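Released AMC fluorescence (360/460 nm) read after 30 min at 22 °C. The reaction was started with Boc-Glu(OBzl)-Ala-Arg-AMC (10 μM stock) after a 15 min preincubation of the enzyme (0.45 nM stock) with compound (final 50 μM to 0.00013 μM).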

The test system of test [2] is human and animal plasma. The experiment in a line: Determination of anticoagulatory activity: activated partial thromboplastin time (aPTT) in plasma. The conditions noted are these: concentration of test substance which brings about a 1.5-fold extension of the aPTT; plasma species not given. The method in brief:
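Citrated plasma (1:9, 0.11 M citrate; 4000 g, 15 min) from human or animal blood incubated with test compound and cephalin/kaolin PTT reagent for 3 min at 37° C.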

The target of test [3] is T2, human plasmin (Homo sapiens, UniProt P00747).
T2 construct: purchased Kordia
T2 sequence (P00747 581-810 limits assumed): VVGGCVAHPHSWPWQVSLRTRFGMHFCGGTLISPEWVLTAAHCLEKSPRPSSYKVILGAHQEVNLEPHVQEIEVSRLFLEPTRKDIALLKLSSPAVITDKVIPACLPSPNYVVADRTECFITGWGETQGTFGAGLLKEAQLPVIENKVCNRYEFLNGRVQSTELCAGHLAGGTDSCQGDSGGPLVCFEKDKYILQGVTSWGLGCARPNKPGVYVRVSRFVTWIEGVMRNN
T2 sequence (P00747 97-580 partner limits assumed): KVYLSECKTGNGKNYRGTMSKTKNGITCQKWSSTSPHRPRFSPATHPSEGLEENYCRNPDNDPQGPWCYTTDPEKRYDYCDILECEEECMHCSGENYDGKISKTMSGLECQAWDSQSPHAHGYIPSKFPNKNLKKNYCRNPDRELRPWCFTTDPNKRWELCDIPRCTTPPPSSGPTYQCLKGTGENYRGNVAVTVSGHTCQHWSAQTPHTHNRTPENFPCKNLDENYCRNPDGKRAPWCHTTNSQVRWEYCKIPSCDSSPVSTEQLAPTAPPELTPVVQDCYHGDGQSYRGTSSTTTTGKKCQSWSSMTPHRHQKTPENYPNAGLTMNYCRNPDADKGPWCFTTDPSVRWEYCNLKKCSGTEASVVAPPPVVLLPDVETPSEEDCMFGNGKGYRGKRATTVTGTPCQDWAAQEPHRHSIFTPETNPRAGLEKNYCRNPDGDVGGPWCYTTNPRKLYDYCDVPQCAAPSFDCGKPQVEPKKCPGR
Kind of test: Measurement of plasmin inhibition (fluorogenic peptide substrate MeOSuc-Ala-Phe-Lys-AMC). It counts as biochemical. Particulars: plasmin from Kordia, 15 min preincubation, 30 min at 22° C., fluorescence. As to the method: The plasmin inhibition of the inventive substances is determined using a biochemical test system which utilizes the reaction of a peptidic plasmin substrate to determine the enzymatic activity of human plasmin. Here, plasmin cleaves from the peptic plasmin substrate the C-terminal aminomethylcoumarin (AMC), the fluorescence of which is measured. The determinations are carried out in microtitre plates.
Test substances are dissolved in dimethyl sulphoxide and serially diluted in dimethyl sulphoxide (3000 μM to 0.0078 μM; resulting final concentrations in the test: 50 μM to 0.00013 μM). In each case 1 μl of the diluted substance solutions are placed into the wells of white microtitre plates from Greiner (384 wells). Subsequently, the following are added successively: 20 μl of assay buffer (50 mmol/Tris buffer pH 7.4; 100 mmol/l sodium chloride; 5 mmol/calcium chloride; 0.1% bovine serum albumin) and 20 μl of plasmin from Kordia (0.3 μg/ml in assay buffer) are then added successively. After 15 min of incubation, the enzyme reaction is started by addition of 20 μl of the plasmin substrate MeOSuc-Ala-Phe-Lys-AMC dissolved in assay buffer (150 μM in assay buffer) from Bachem, the mixture is incubated at room temperature (22° C.) for 30 min and fluorescence is then measured (excitation: 360 nm, emission: 460 nm). The measured emissions of the test batches with test substance are compared to those of control batches without test substance (only dimethyl sulphoxide instead of test substance in dimethyl sulphoxide), and the IC50 values are calculated from the concentration/activity relationships.

T1 sequence (P03951 388-625 limits assumed): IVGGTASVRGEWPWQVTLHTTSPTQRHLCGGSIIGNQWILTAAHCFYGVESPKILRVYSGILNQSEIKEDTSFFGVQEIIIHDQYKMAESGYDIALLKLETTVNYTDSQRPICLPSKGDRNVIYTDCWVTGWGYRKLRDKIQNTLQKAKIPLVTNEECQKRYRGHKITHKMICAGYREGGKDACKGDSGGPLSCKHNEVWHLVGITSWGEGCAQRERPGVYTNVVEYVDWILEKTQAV
T1 sequence (P03951 19-387 partner limits assumed): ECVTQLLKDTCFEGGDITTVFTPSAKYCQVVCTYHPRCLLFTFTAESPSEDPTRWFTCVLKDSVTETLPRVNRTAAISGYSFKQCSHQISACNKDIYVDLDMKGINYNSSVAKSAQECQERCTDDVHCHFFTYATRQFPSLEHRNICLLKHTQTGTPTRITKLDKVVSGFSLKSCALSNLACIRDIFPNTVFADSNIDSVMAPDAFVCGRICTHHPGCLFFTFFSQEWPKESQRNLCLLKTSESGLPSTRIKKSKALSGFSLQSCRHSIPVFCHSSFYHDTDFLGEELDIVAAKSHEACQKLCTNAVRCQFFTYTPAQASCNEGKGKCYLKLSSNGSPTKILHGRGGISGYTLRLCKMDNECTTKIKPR

Turning to `Cc1cc(C(=O)NC2CC(O)C2)ccc1-c1ccc(C[C@H](NC(=O)[C@H]2CC[C@H](CN)CC2)C(=O)Nc2ccc3cn[nH]c3c2)cc1` (stereo partly drawn) [Example 164, 4′-[(2S)-2-({[trans-4-(Aminomethyl)cyclohexyl]carbonyl}amino)-3-(1H-indazol-6-ylamino)-3-oxopropyl]-N-(3-hydroxycyclobutyl)-2-methylbiphenyl-4-carboxamide hydrochloride], the IC50 was found to be 7.6 nM in test [1] and 13 nM in test [3]. In test [2], the “aPTT” value was determined as 0.13 µmol/L.
Take `Cc1cc(C(=O)NC(C)C)ccc1-c1ccc(C[C@H](NC(=O)[C@H]2CC[C@H](CN)CC2)C(=O)Nc2ccc3c(=O)[nH][nH]c3c2)cc1` [Example 135, 4′-{(2S)-2-({[trans-4-(Aminomethyl)cyclohexyl]carbonyl}amino)-3-oxo-3-[(3-oxo-2,3-dihydro-1H-indazol-6-yl)amino]propyl}-N-isopropyl-2-methylbiphenyl-4-carboxamide hydrochloride]: the concentration for half-maximal inhibition (IC50) in test [1] worked out at 2.2 nM; in test [3], 0.96 nM. In addition, the “aPTT” value in test [2] is 0.24 µmol/L.
As to `Cc1cc(C(=O)NC2CCC2)ccc1-c1ccc(C[C@H](NC(=O)[C@H]2CC[C@H](CN)CC2)C(=O)Nc2ccc(-c3nnn[nH]3)cc2)cc1` [Example 138, 4′-[(2S)-2-({[trans-4-(Aminomethyl)cyclohexyl]carbonyl}amino)-3-oxo-3-{[4-(1H-tetrazol-5-yl)phenyl]amino}propyl]-N-cyclobutyl-2-methylbiphenyl-4-carboxamide hydrochloride], the IC50 amounted to 0.84 nM in test [1] and 2.3 nM in test [3]. The “aPTT” value in test [2] is 0.25 µmol/L.
Take `CC(C)NC(=O)c1ccc(-c2ccc(C[C@H](NC(=O)[C@H]3CC[C@H](CN)CC3)C(=O)Nc3cc(F)c4cn[nH]c4c3)cc2)c(Cl)c1` [Example 134, 4′-{(2S)-2-({[trans-4-(Aminomethyl)cyclohexyl]carbonyl}amino)-3-[(4-fluoro-1H-indazol-6-yl)amino]-3-oxopropyl}-2-chloro-N-isopropylbiphenyl-4-carboxamide hydrochloride]: the IC50 in test [1] was found to be 8.9 nM; in test [3], 0.64 nM. In addition, the “aPTT” value in test [2] amounted to 0.44 µmol/L.
For the molecule `Cc1cc(C(=O)N2CCC3CNC(=O)C32)ccc1-c1ccc(C[C@H](NC(=O)[C@H]2CC[C@H](CN)CC2)C(=O)Nc2ccc3cn[nH]c3c2)cc1` (stereo partly drawn) [Example 163, trans-4-(Aminomethyl)-N-[(2S)-1-(1H-indazol-6-ylamino)-3-{2′-methyl-4′-[(6-oxohexahydropyrrolo[3,4-b]pyrrol-1(2H)-yl)carbonyl]biphenyl-4-yl}-1-oxopropan-2-yl]cyclohexanecarboxamide hydrochloride], the figures for the IC50 in test [1] and in test [3] were 10 nM and 8.8 nM, respectively. Besides, the “aPTT” value in test [2] came to 0.07 µmol/L.
For the molecule `Cc1cc(C(=O)NC(C)C)ccc1-c1ccc(C[C@H](NC(=O)[C@H]2CC[C@H](CN)CC2)C(=O)Nc2cc(Cl)c3[nH]c(=O)[nH]c3c2)cc1` [Example 158, 4′-{(2S)-2-({[trans-4-(Aminomethyl)cyclohexyl]carbonyl}amino)-3-[(7-chloro-2-oxo-2,3-dihydro-1H-benzimidazol-5-yl)amino]-3-oxopropyl}-N-isopropyl-2-methylbiphenyl-4-carboxamide hydrochloride], the IC50 amounted to 3.8 nM in test [1] and 0.43 nM in test [3]. Also, the “aPTT” value in test [2] was 0.1 µmol/L.
